Measurements taken from patent US20140314676A1, “METHODS OF TREATMENT WITH DEFERIPRONE” (APOTEX TECHNOLOGIES INC., priority 2011, published 2014).
“Also recorded” adds a separate entry of the source.

What was measured:
porcine hearts [1] = assay: Artificially induced hemorrhage in porcine hearts by intracoronary injection of collagenase after 8 min ischemia; assay type: in vivo, Yorkshire pigs; settings: for Epicardial and intramyocardial hemorrhage: sacrifice at 24 hrs
Protocol: (§1) 21 Yorkshire pigs (19-31 kg) were included in the study and 7-9 ml phosphate-buffered solution containing collagenase was injected using an over-the-wire angioplasty balloon catheter that was advanced to mid LAD after 2nd diagonal branch; balloon inflation was maintained for 8 min (ischemia). Six doses (250, 600, 800, 1200, 1600, and 3200 mcg) of collagenase were administered in equally divided groups; there was no mortality attributable to collagenase infusion. Animals were sacrificed at 24 hrs and hearts were explanted for histological analysis. […] After establishing this model, a pilot study was initiated to artificially induce hemorrhage in one animal subjected to a 45 min LAD occlusion, which is inherently non-hemorrhagic. Collagenase was injected immediately after balloon deflation i.e. during reperfusion at an intermediate dose of 1000 mcg. […] This was unlike the untreated 45 min infarcts studied. Currently, the causality between hemorrhage and MVO is unknown. The blood spilt in the interstitium might have compressed the microvasculature that was already vulnerable due to the initial ischemic insult; in other words, hemorrhage may have created the MVO.

porcine hearts [2] = assay: Collagenase injection during reperfusion after 45 min LAD occlusion, MRI at day 2; assay type: in vivo, pig; settings: 1000 mcg during reperfusion, day 2 post-AMI, one animal
Protocol: as §1

[3] = test system: porcine model of myocardial infarction; assay: Porcine model of myocardial infarction (90 min LAD occlusion, reperfusion), pilot study monitored by MRI; assay type: in vivo; settings: for Ejection fraction (EF) / Vasodilatory dysfunction (remote myocardium T2) / Inflammation or edema (T2) / Ventricular volume (end-diastolic and end-systolic volumes): pigs N=2, oral 100 mg/kg daily; for Inflammation or edema (T2): infarct zone; for Ventricular volume (end-diastolic and end-systolic volumes): up to 4 weeks; for Hemorrhage (from T2* image): pigs N=2, oral pre-loading then 100 mg/kg daily, MRI day 2 to week 4
Protocol: Post-infarct remodeling is a complex process with various pathophysiological changes occurring simultaneously (19) whose inter-dependence has not been completely understood in vivo. An initial study was performed to assess evolution of: 1) edema (T2); 2) hemorrhage (T2*); 3) cardiac function; 4) infarct/MVO size and 5) vasodilatory function in a porcine model of myocardial infarction. The left anterior descending artery (LAD) was occluded for 90 min followed by reperfusion; this model consistently produced anteroseptal transmural infarcts characterized by MVO. Pattern of progression of edema, hemorrhage and infarct/MVO was apparent on T2-, T2*-maps and contrast-enhanced (CE) images as shown in a representative animal (FIG. 1). Post-infarct LV remodeling was monitored by observing the cumulative time course of quantitative MRI parameters (FIG. 2). […] Vasodilator function (or perfusion reserve) was evaluated with T2-based Blood-oxygen-level-dependent (BOLD) imaging using a pharmacological vasodilator (FIG. 4). […] The failure of remote vasodilatory function to regain control levels in the chronic phase of AMI potentially served as a predictor of subsequent adverse LV remodeling. […] Importantly, the evolution of MRI parameters was well correlated with histological features, similar to patterns seen in humans (24); this justified using a large animal model, e.g., porcine, for translation to the clinic. Two papers based on this work were published in MRM (32, 76).
Excess tissue iron accumulation can be lethal as free iron is toxic in nature. It has been speculated that iron chelation may be beneficial in acute coronary syndromes and that early treatment can limit ischemia-reperfusion injury and also reduce infarct size (83, 84). However, the role of iron chelation in hemorrhagic infarction has not yet been explored. In the present example, the cardioprotective properties of the iron chelating agent deferiprone (DFP) were explored in a porcine model of myocardial infarction. Deferiprone offered several advantages in that it is a very small molecule, both hydrophilic and lipophilic and highly membrane permeable; it can readily enter mitochondria and may access intracellular labile iron. In a pilot study, DFP was administered (orally) to pigs (N=2) a few hours before a 90 min LAD occlusion (pre-loading), and treatment was continued with a daily dose of 100 mg/kg (85). Animals were then monitored with a comprehensive MRI exam from day 2 to week 4. […] The result shown in FIG. 14 compared to FIG. 1 show the neutralizing capacity of DFP.

[4] = test system: porcine model of myocardial infarction; assay: Hemorrhagic myocardial infarction in porcine model, remodeling monitored by CMR (Example 3); assay type: in vivo
Protocol: A quantitative study was done to investigate the effect of the deferiprone (DFP) on the hemorrhagic byproducts in tissue in a porcine model of myocardial infarction, and to monitor remodeling by cardiovascular magnetic resonance (CMR).
The study involved two groups of animals that were subjected to a 90 min balloon occlusion of the left anterior descending artery (LAD) followed by reperfusion—untreated (N=2) and DFP treated (N=2). DFP was administered (orally) a few hours (about 1-2 hours) before the procedure (pre-loading) and treatment was continued with a daily dose of 100 mg/kg. Imaging was performed on a 3T MRI scanner (MR 750, GE Healthcare) pre-AMI (healthy), day 2, week 1, week 2 and week 4 post-AMI. Edema was evaluated by T2 quantification using a T2-prepared spiral sequence and hemorrhage was identified by T2* using a multi-echo gradient-echo acquisition. Infarct assessment was performed by delayed hyperenhancement (DHE) using an IR-GRE sequence.

[5] = test system: Langendorff heart preparation; settings: constant deferiprone infusion of 50 μM, ex vivo; cited from earlier work
[6] = 90 min LAD occlusion, listed as DFP, 100 mg/kg
[7] = DFP treated N=2, 100 mg/kg daily

Compound: collagenase
- Mortality attributable to collagenase infusion (porcine hearts [1]; 250-3200 mcg intracoronary, 21 pigs): no mortality
- Epicardial and intramyocardial hemorrhage (porcine hearts [1]; 800-1600 mcg intracoronary): mild-moderate
- Epicardial and intramyocardial hemorrhage (porcine hearts [1]; 3200 mcg intracoronary): severe
- Infarction (histology) (porcine hearts [1]; intracoronary collagenase after 8 min ischemia): No infarction
- Dose resulting in hemorrhage on explanted hearts (porcine hearts [1]; intracoronary, after 8 min ischemic episode): > 800 µg
- Epicardial and intramyocardial hemorrhage (porcine hearts [1]; up to 600 mcg intracoronary): none or mild focal
- Hemorrhage on T2*-weighted images (porcine hearts [2]): Signal void
- MVO on DHE images (porcine hearts [2]): corresponded with an MVO
- Hemorrhage on T2*-weighted images (porcine hearts [2]; listed as Collagenase): signal void
- MVO on DHE images (porcine hearts [2]; listed as Collagenase): presence of MVO

Compound: Cc1c(O)c(=O)ccn1C [deferiprone]
- Ejection fraction (EF) ([3]; 90 min LAD occlusion): reduced gradually
- Vasodilatory dysfunction (remote myocardium T2) ([3]; 90 min LAD occlusion): impaired vasodilatory function only at day 2
- Inflammation or edema (T2) ([3]; 90 min LAD occlusion, 100 mg/kg): substantially subsided at week 4; also recorded: substantially subsided beyond week 2
- Inflammation or edema (T2) [3, 6]: substantially reduced by week 4
- Ventricular volume (end-diastolic and end-systolic volumes) ([3]; 90 min LAD occlusion): Relatively unchanged
- Ventricular volume (end-diastolic and end-systolic volumes) [3, 6]: relatively unchanged
- Ejection fraction (EF) [3, 6]: gradually depressed by week 4
- Vasodilatory dysfunction (remote myocardium T2) [3, 6]: observed only at day 2
- Hemorrhage (from T2* image) ([3]; 90 min LAD occlusion): observed only on day 2 but resolved by week 1; also recorded: only observed on day 2, which later resolved
- Hemorrhage (from T2* image) ([3]; 90 min LAD occlusion, listed as DFP): observed only on day 2 and by week 1 it had completely resolved
- Side effects ([3]; pigs, oral 100 mg/kg daily, throughout the 4 weeks of observation): No side effects
- Microvascular obstruction (MVO) ([3]; representative animal, 90 min LAD occlusion, seen on day 2): partially resolved by week 1
- Ejection fraction (EF) [4, 7]: depressed by week 4
- End-diastolic and end-systolic volumes [4, 7]: relatively unchanged
- Inflammation and edema (T2) [4, 7]: substantially reduced by week 4
- Microvascular obstruction (MVO) ([4]; DFP treated N=2, 100 mg/kg daily, seen on day 2): partially resolved by week 1
- Hemorrhage (as indicated by T2* image) ([4]; DFP treated N=2, oral pre-loading then 100 mg/kg daily, 90 min LAD occlusion, listed as DFP): observed only on day 2 and by week 1 it had completely resolved
- Free radical activity [5]: reduction
